Measurements taken from the NIST ThermoML archive (doi:10.1007/s10765-007-0223-x).

Assay: xn = mol fraction of the nth substance listed
Conditions: 101 kPa, Liquid; for speed of sound: Single path-length method

COC(C)(C)C [2-methoxy-2-methylpropane] + CC(C)(C)O
Conditions | mass density [kg/m3] | speed of sound [m/s]
301.65 K, x1 = 0.049 | 775.452 | 1105.4
301.65 K, x1 = 0.1 | 772.914 | 1100.7
301.65 K, x1 = 0.215 | 767.025 | 1089.3
301.65 K, x1 = 0.314 | 761.986 | 1079.7
301.65 K, x1 = 0.4 | 757.94 | 1072
301.65 K, x1 = 0.498 | 753.459 | 1063.6
301.65 K, x1 = 0.597 | 749.177 | 1055.5
301.65 K, x1 = 0.707 | 744.495 | 1047.6
301.65 K, x1 = 0.799 | 740.646 | 1040.8
301.65 K, x1 = 0.9 | 736.522 | 1033.1
301.65 K, x1 = 0.951 | 734.553 | 1028.8
301.65 K, x1 = 1 | 732.643 | 1024.3
303.15 K, x1 = 0.049 | 772.916 | 1094.7
303.15 K, x1 = 0.1 | 770.395 | 1090.2
303.15 K, x1 = 0.215 | 764.529 | 1079.1
303.15 K, x1 = 0.314 | 759.479 | 1069.7
303.15 K, x1 = 0.4 | 755.424 | 1061.9
303.15 K, x1 = 0.498 | 750.928 | 1053.1
303.15 K, x1 = 0.597 | 746.615 | 1045
303.15 K, x1 = 0.707 | 741.905 | 1036.7
303.15 K, x1 = 0.799 | 738.033 | 1029.9
303.15 K, x1 = 0.9 | 733.889 | 1021.9
303.15 K, x1 = 0.951 | 731.913 | 1017.6
303.15 K, x1 = 1 | 729.99 | 1012.8
305.65 K, x1 = 0.049 | 770.344 | 1084
305.65 K, x1 = 0.1 | 767.841 | 1079.7
305.65 K, x1 = 0.215 | 762.002 | 1068.7
305.65 K, x1 = 0.314 | 756.946 | 1059.4
305.65 K, x1 = 0.4 | 752.889 | 1051.7
305.65 K, x1 = 0.498 | 748.373 | 1042.6
305.65 K, x1 = 0.597 | 744.023 | 1034.3
305.65 K, x1 = 0.707 | 739.304 | 1025.9
305.65 K, x1 = 0.799 | 735.393 | 1018.7
305.65 K, x1 = 0.9 | 731.231 | 1010.6
305.65 K, x1 = 0.951 | 729.253 | 1006.3
305.65 K, x1 = 1 | 727.325 | 1001.4
308.15 K, x1 = 0.049 | 767.747 | 1073.2
308.15 K, x1 = 0.1 | 765.265 | 1069.1
308.15 K, x1 = 0.215 | 759.448 | 1058.2
308.15 K, x1 = 0.314 | 754.398 | 1049.1
308.15 K, x1 = 0.4 | 750.325 | 1041.2
308.15 K, x1 = 0.498 | 745.794 | 1032
308.15 K, x1 = 0.597 | 741.414 | 1023.5
308.15 K, x1 = 0.707 | 736.686 | 1015.2
308.15 K, x1 = 0.799 | 732.737 | 1007.6
308.15 K, x1 = 0.9 | 728.559 | 999.39
308.15 K, x1 = 0.951 | 726.577 | 994.94
308.15 K, x1 = 1 | 724.645 | 989.9
310.65 K, x1 = 0.049 | 765.13 | 1062.6
310.65 K, x1 = 0.1 | 762.685 | 1058.9
310.65 K, x1 = 0.215 | 756.88 | 1047.9
310.65 K, x1 = 0.314 | 751.817 | 1038.6
310.65 K, x1 = 0.4 | 747.731 | 1030.6
310.65 K, x1 = 0.498 | 743.186 | 1021.4
310.65 K, x1 = 0.597 | 738.784 | 1012.8
310.65 K, x1 = 0.707 | 734.036 | 1004.3
310.65 K, x1 = 0.799 | 730.062 | 996.52
310.65 K, x1 = 0.9 | 725.873 | 988.12
310.65 K, x1 = 0.951 | 723.884 | 983.57
310.65 K, x1 = 1 | 721.953 | 978.47
313.15 K, x1 = 0.049 | 762.492 | 1052
313.15 K, x1 = 0.1 | 760.064 | 1048.4
313.15 K, x1 = 0.215 | 754.27 | 1037.4
313.15 K, x1 = 0.314 | 749.212 | 1028.2
313.15 K, x1 = 0.4 | 745.126 | 1020.2
313.15 K, x1 = 0.498 | 740.567 | 1010.9
313.15 K, x1 = 0.597 | 736.13 | 1002
313.15 K, x1 = 0.707 | 731.36 | 993.34
313.15 K, x1 = 0.799 | 727.372 | 985.44
313.15 K, x1 = 0.9 | 723.168 | 976.81
313.15 K, x1 = 0.951 | 721.205 | 972.48
313.15 K, x1 = 1 | 719.245 | 967.03
315.65 K, x1 = 0.049 | 759.831 | 1041.5
315.65 K, x1 = 0.1 | 757.407 | 1037.8
315.65 K, x1 = 0.215 | 751.633 | 1026.8
315.65 K, x1 = 0.314 | 746.577 | 1017.7
315.65 K, x1 = 0.4 | 742.483 | 1009.7
315.65 K, x1 = 0.498 | 737.91 | 1000.2
315.65 K, x1 = 0.597 | 733.459 | 991.47
315.65 K, x1 = 0.707 | 728.662 | 982.37
315.65 K, x1 = 0.799 | 724.66 | 974.33
315.65 K, x1 = 0.9 | 720.449 | 965.56
315.65 K, x1 = 0.951 | 718.495 | 961.27
315.65 K, x1 = 1 | 716.525 | 955.73
318.15 K, x1 = 0.049 | 757.138 | 1031
318.15 K, x1 = 0.1 | 754.729 | 1027.3
318.15 K, x1 = 0.215 | 748.972 | 1016.3
318.15 K, x1 = 0.314 | 743.917 | 1007.1
318.15 K, x1 = 0.4 | 739.814 | 999.06
318.15 K, x1 = 0.498 | 735.227 | 989.54
318.15 K, x1 = 0.597 | 730.762 | 980.67
318.15 K, x1 = 0.707 | 725.943 | 971.38
318.15 K, x1 = 0.799 | 721.933 | 963.24
318.15 K, x1 = 0.9 | 717.738 | 954.55
318.15 K, x1 = 0.951 | 715.752 | 949.91
318.15 K, x1 = 1 | 713.786 | 944.34
320.65 K, x1 = 0.049 | 754.421 | 1020.5
320.65 K, x1 = 0.1 | 752.024 | 1016.8
320.65 K, x1 = 0.215 | 746.283 | 1005.9
320.65 K, x1 = 0.314 | 741.23 | 996.62
320.65 K, x1 = 0.4 | 737.119 | 988.47
320.65 K, x1 = 0.498 | 732.517 | 978.82
320.65 K, x1 = 0.597 | 728.042 | 969.8
320.65 K, x1 = 0.707 | 723.201 | 960.4
320.65 K, x1 = 0.799 | 719.199 | 952.31
320.65 K, x1 = 0.9 | 714.978 | 943.3
320.65 K, x1 = 0.951 | 712.991 | 938.58
320.65 K, x1 = 1 | 711.028 | 933.01
323.15 K, x1 = 0.049 | 751.68 | 1010
323.15 K, x1 = 0.1 | 749.295 | 1006.3
323.15 K, x1 = 0.215 | 743.567 | 995.37
323.15 K, x1 = 0.314 | 738.52 | 986.19
323.15 K, x1 = 0.4 | 734.4 | 977.86
323.15 K, x1 = 0.498 | 729.786 | 968.08
323.15 K, x1 = 0.597 | 725.316 | 958.97
323.15 K, x1 = 0.707 | 720.436 | 949.42
323.15 K, x1 = 0.799 | 716.426 | 941.22
323.15 K, x1 = 0.9 | 712.195 | 931.99
323.15 K, x1 = 0.951 | 710.215 | 927.25
323.15 K, x1 = 1 | 708.28 | 921.93
